The record followed here is PMC11513923, “Discovery of ZLC491 as a Potent, Selective, and Orally Bioavailable CDK12/13 PROTAC Degrader” (Journal of Medicinal Chemistry, 2024).

In assay [1] the test system is CDK12/13. In words: Immunoblotting of CDK12 and CDK13 in MDA-MB-436 cells. It is filed as cell-based, human. The conditions noted are these: increasing concentrations, 15 h. As for the experimental part:
(§1) To further characterize the compound, we determined the half-degradation concentration (DC50) values of ZLC491 in MDA-MB-231 cells. […] We also treated MDA-MB-231 cells with 1 μM ZLC491 at various time points.
(§2) (A) Immunoblotting of CDK12 and CDK13 in MDA-MB-231 cells treated with increasing concentrations of ZLC491 for 15 h (left). Percent remaining CDK12 and CDK13 proteins were plotted for DC50 determination (right). Protein levels were quantified using ImageJ and normalized to corresponding α-tubulin, then plotted using Graphpad Prism 8.0. The data were representative of three independent experiments; (B) immunoblotting of CDK12 and CDK13 proteins in MDA-MB-231 cells treated with ZLC491 for various time points; immunoblotting of CDK12 and CDK13 in HCC38 (C) and MDA-MB-436 (D) cells treated with increasing concentrations of ZLC491 for 15 h. α-Tubulin was used as a loading control. TEXT PRINTED IN THE PICTURE: (A) ZLC491: MDA-MB-231: CDK12 DC50 = 0.032μM; MDA-MB-231: CDK13 DC50 = 0.028μM DOUBTS OF THE COPYIST ABOUT THIS PICTURE: ZLC491, CDK12 DC50: 0.032 read from small print, the digits 3 and 2 are uncertain / ZLC491, CDK13 DC50: 0.028 read from small print, the last digit may be 8, 6 or 3 […]

Assay [2] relates to CDK12/13. Kind of assay: Immunoblotting of CDK12 and CDK13 in HCC38 cells. It is filed as cell-based, human. The conditions noted are these: increasing concentrations, 15 h. How it is done:
as §1, §2
For orientation: A western blot detects proteins with antibodies after separation by electrophoresis.

Another assay concerns MCF 10A cells. Kind of assay: Cell proliferation assay (CCK-8). The conditions noted are these: Homo sapiens, 120 h, 5 days, noncancerous mammary epithelial cells. It is filed as cell-based. How it is done: (§3) (A) Transcription level of DDR genes in MDA-MB-231 cells determined by RT-qPCR upon the treatment with vehicle or ZLC491 at different doses for 12 h, ROR1 was used as a negative control; (B) immunoblotting of DDR proteins in MDA-MB-231 cells after the treatment of ZLC491 at different doses for 48 h; (C) cell antiproliferative activity of ZLC491 in multiple TNBC cells as well as several noncancerous cells. Cells were treated with the compound for 5 days; (D,E) antiproliferative potency of cisplatin or olaparib alone or combined with ZLC491 at different doses in MDA-MB-231 cells for 5 days. Data are plotted using the percentage of absorbance relative to DMSO controls. (F) IC50 values and combination index (CI) in drug combination assay. In this model, CI scores estimate the interaction between the two drugs. If CI < 1, the drugs have a synergistic effect and if CI > 1, the drugs have an antagonistic effect. CI = 1 means the drugs have an additive effect. ^aThe drug combination in the table refers to the starting concentration of the two combined drugs, that would both go through serial dilution when treating cells.
(§4) TNBC cell lines MDA-MB-231, MDA-MB-436 and HCC38, human embryonic kidney cell line HEK 293 and human embryonic lung cell line MRC-5 were purchased from American Type Culture Collection (ATCC). Human mammary epithelial cell line MCF 10A was obtained from Chinese Academy of Sciences National Collection of Authenticated Cell Cultures. MDA-MB-231 was maintained in Leibovitz’ s L-15 medium (Gibco) supplemented with 10% fetal bovine serum (FBS; Excell Bio) and 1% penicillin/streptomycin (P/S; Gibco) at 37 °C in a humidified chamber of 100% air atmosphere. MDA-MB-436 and HCC38 were developed in Dulbecco’s modified Eagle medium (DMEM; Gibco) and RPMI-1640 medium (Gibco), respectively, both supplemented with 10% FBS (Excell Bio) and 1% P/S (Gibco), using a 37 °C constant temperature incubator with 5% CO2. HEK 293 and MRC-5 were cultured in the same condition with Eagle’s minimum essential medium (EMEM; Wisent). MCF 10A was grown in Mammary Epithelial Cell Growth Medium BulletKit (Lonza) at 37 °C in a humidified chamber with 5% CO2.
(§5) Tested cells were plated in 96-well or 384-well plates and incubated at 37 °C with or without 5% CO2. After overnight incubation, serial dilutions of compounds were added to the plate. Cell proliferation was measured 5 days after compound treatment using Cell Counting Kit-8 (Selleck) according to the manufacturer’s instructions.

Another assay concerns MDA-MB-231 cells. In words: Cell proliferation assay (CCK-8). It is filed as cell-based. The conditions noted are these: Homo sapiens, MDA-MB-231, 120 h; 5 days. As for the experimental part: as §3, §4, §5
The test system of the next assay is MRC-5 cells. In words: Cell proliferation assay (CCK-8). It is filed as cell-based. The conditions noted are these: Homo sapiens, MRC5, 120 h; 5 days, noncancerous embryonic lung cells. As for the experimental part:
as §3, §4, §5

The subject of a further assay is MDA-MB-436 cells. In words: Cell proliferation assay (CCK-8). It is filed as cell-based. The conditions noted are these: Homo sapiens, MDA-MB-436, 120 h; 5 days. As for the experimental part: as §3, §4, §5
In a further assay the test system is HEK 293 cells. Kind of assay: Cell proliferation assay (CCK-8). It is filed as cell-based. The conditions noted are these: Homo sapiens, HEK293, 120 h; 5 days, noncancerous embryonic kidney cells. How it is done:
as §3, §4, §5

In another assay the test system is HCC38 cells. In words: Cell proliferation assay (CCK-8). It is filed as cell-based. The conditions noted are these: Homo sapiens, HCC38, 120 h; 5 days. How it is done:
as §3, §4, §5

Molecules are shown by their SMILES.

For orientation: IC50 means the point on the concentration scale where inhibition reaches its midpoint. As to `N#Cc1ccc(N[C@H]2CC[C@H](N(C(=O)NCc3ccccc3)c3ccc(N4CCN(C5CCN(c6cc7c(cc6F)C(=O)N(C6CCC(=O)NC6=O)C7=O)CC5)CC4)cc3)CC2)nc1` (some centres unmarked) [ZLC491, 3-Benzyl-1-((1r,4r)-4-((5-cyanopyridin-2-yl)amino)cyclohexyl)-1-(4-(4-(1-(2-(2,6-dioxopiperidin-3-yl)-6-fluoro-1,3-dioxoisoindolin-5-yl)piperidin-4-yl)piperazin-1-yl)phenyl)urea], the “depletion of CDK12/13” value in the assay on CDK12/13 [1] and in the assay on CDK12/13 [2] was “concentration-dependent manner” each time. Further, the IC50 with MCF 10A cells is more than 10000 nM; with MDA-MB-231 cells, 620 nM; in the assay with MRC-5 cells, more than 10000 nM; in the assay on MDA-MB-436 cells it was 120 nM; in the assay on HEK 293 cells, more than 10000 nM; in the assay on HCC38 cells, 190 nM.
